Source: the METLIN SMRT retention time set (Domingo-Almenara et al. 2019)

Experiment: gradient 5% acetonitrile 3 min, to 50% in 2 min, to 85% in 15 min, held 3 min, 100 µL/min
Settings: column: Zorbax Extend-C18 2.1 x 50 mm; eluents: water / acetonitrile, 0.1% formic acid
Outline: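 Pure standards were run in mixtures of ~100 molecules by HPLC coupled to a quadrupole time-of-flight mass spectrometer. The column was a Zorbax Extend-C18 (2.1 × 50 mm, 1.8 μm) at 100 μL/min, with water and acetonitrile each containing 0.1% formic acid, in positive and negative ionization mode. Dead and dwell volumes were 40 μL and 900 μL. Retention time was taken from computationally picked adduct peaks, each manually inspected, with data collected over 3 months.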

RP-LC retention time [s] | SMILES
634 | COc1cccc(C(O)CN2CCN(c3ccccc3)CC2)c1 (stereo not given)
1030 | Cc1ccc(-n2ccc(=O)c(-c3nc(-c4ccc(Br)cc4)no3)n2)cc1
628 | CC(C(=O)NCCN1CCCCC1)n1c2ccccc2c2cnn(C)c(=O)c21 (stereo not given)
605 | C=CCn1nc(C)c(-c2cc(C(=O)O)[nH]n2)c1C
628 | CC(C)c1nnc2n1CCN(C(=O)c1cc(-c3cccs3)[nH]n1)C2
892 | O=C(C1CCN(c2nc3ccc(-c4cccc(F)c4)nc3s2)CC1)N1CCOCC1
1080 | Cc1ccccc1-c1nnc(CSc2nnc(NC(=O)CC3CCCCC3)s2)o1
544 | Cc1ncsc1CN1CCn2c(nnc2[C@@H]2C[C@@H](O)CN2Cc2cccnc2)C1
554 | Cc1cnc(C2CN(Cc3cccc(F)c3)C2)n1CC1CC1
1020 | Cc1cccc2c(=O)n(C3CCN(S(=O)(=O)c4cccc(Cl)c4)CC3)cnc12
844 | CCc1nnc(-c2cc(C)n(CC(=O)Nc3cc(F)cc(F)c3)c2C)o1
784 | CC(C)CCNC(=O)Nc1ccc2c(c1)CCN2S(C)(=O)=O
746 | CCOC(=O)Cn1c(C2CC(=O)N(c3ccccc3F)C2)nc2ccccc21 (stereo not given)
897 | COc1ccc(OCC(=O)Nc2ccc3c(c2)N(C(=O)C(C)C)CCC3)cc1
838 | O=C(CN1N=C(C(=O)Nc2ccc(F)cc2)CCC1=O)Nc1ccc(F)c(F)c1
574 | O=C(NC1CC1)[C@@H]1C[C@H](Oc2cccnc2)CN1C(=O)c1cccs1
862 | COc1ccc(NC(=O)c2cnc3c(c2)c(=O)n(C)c(=O)n3-c2ccccc2)cc1
760 | O=S(=O)(c1ccccc1Cl)N1CC(F)(F)C[C@H]1CN1CCc2ccccc2C1
658 | CCC1CN2C=NC(N3CCN(C(=O)Nc4cc(C)ccc4OC)CC3)=CC2=N1 (stereo not given)
851 | CCOC(=O)NC(=O)c1ccsc1NC(=O)c1ccc([N+](=O)[O-])s1
1340 | COc1ccc(Cn2nc3ccc(S(=O)(=O)N4CCC(C)CC4)cn3c2=O)cc1F
706 | Cc1ccccc1-c1nc(-c2ccc3c(c2)nnn3CCN2CCOCC2)no1

RP-LC retention time [s] | SMILES
714 | O=C1CN(Cc2ccco2)C2CS(=O)(=O)CC2N1c1ccc(Cl)cc1 (stereo not given)
735 | Cc1noc2ncn(CC(=O)Nc3ccc(F)cc3)c(=O)c12
709 | COCCOCc1nc(C2CCN(C(=O)NC3CCCCC3)CC2)no1
1340 | Cc1ccc(-c2noc(-c3cccc(S(=O)(=O)N4CCCCC4)c3)n2)cc1
638 | NC(=O)CCC(C(=O)O)N1C(=O)C2C3CCC(C3)C2C1=O (stereo not given)
697 | Cc1nnc2sc(SCc3ccc([N+](=O)[O-])cc3)nn2c1=O
596 | NC(=O)C1CCN(S(=O)(=O)c2ccc3[nH]cc(C(=O)O)c(=O)c3c2)CC1
684 | CCCNC(=O)Cn1ccn2nc(-c3ccccc3)c(CO)c2c1=O
745 | Cc1ccc(-n2nnnc2CNC(=O)c2ccc([N+](=O)[O-])o2)cc1C
841 | COc1ccc(CNS(=O)(=O)c2cn(C(C)C)c3ncccc23)cc1
626 | CCOCc1nc(C2CCCN2C(=O)Nc2ccsc2C(=O)OC)no1 (stereo not given)
756 | O=C1NC2(CCN(C(=O)Cc3ccccc3)CC2)Nc2c(Cl)cccc21
593 | Cc1c(CCC(=O)O)c(C)n2c(nc3ccccc32)c1C#N
800 | CS(=O)(=O)N1CCCc2cc(C(=O)N3CCCCCC3)ccc21
633 | Cn1nc(C(=O)N2CCCC(C(=O)NC3CC3)C2)c2c1CCN(C(=O)c1ccc(F)cc1)C2 (stereo not given)
699 | Cc1noc(-c2nn(C)c3c2CN(C(=O)NCc2ccc(F)cc2)CC3)n1
924 | COc1ccccc1C1NC(=O)NC(C)=C1C(=O)OC1CCCC1C (stereo not given)
848 | Cc1ccc(NC(=O)C2CCN(C(=O)c3ncn4c3COC(c3ccc(F)cc3)C4)CC2)cc1C (stereo not given)
665 | CCOc1ccccc1C(=O)N1CCC(C(=O)NCC(F)(F)F)CC1
938 | Cc1ccc(-c2cn3c(CC(=O)NC4CCC(C)CC4)csc3n2)cc1C (stereo not given)
1190 | CCc1nc2cc(-c3noc(-c4ccc(F)cc4)n3)ccc2o1
909 | COc1ccc(Cl)cc1NC(=O)C1CCCN1S(=O)(=O)c1cc2c(cc1C)NC(=O)C(C)O2 (stereo not given)

RP-LC retention time [s] | SMILES
808 | CC(C)Cc1nc(CNC(=O)c2coc(C3CC3)n2)no1
811 | CCOc1ccc(C(Nc2ccccn2)c2ccc3ccc(C)nc3c2O)cc1C (stereo not given)
784 | CN(C)C(=O)c1csc(S(=O)(=O)N2CCC(C(=O)NCc3ccccc3Cl)CC2)c1
693 | CC(C)n1cnnc1CC1CN(C(=O)Nc2ccc(Cl)cc2C(F)(F)F)C1
784 | O=C(Nc1ccc(F)cc1F)C1CC(=O)N(CCc2c[nH]c3ccc(F)cc23)C1 (stereo not given)
603 | COc1ccc(C(CC(=O)NCCN2CCOCC2)N2Cc3ccccc3C2=O)cc1OC (stereo not given)
901 | CCn1cc(C(=O)NCc2ccccc2F)c(S(=O)(=O)N2CCSCC2)n1
731 | COc1ccccc1C(=O)Nc1cnc(N2CCCC2)nc1
780 | CCc1ccccc1NC(=O)C1CC(=O)N(c2ccc3c(c2)CCN3C(=O)C2CC2)C1 (stereo not given)
814 | Cc1ccc(S(=O)(=O)c2nc(C)oc2NCc2ccco2)cc1
783 | CS(=O)(=O)N1CCC(OC2CCN(C(=O)Nc3ccc(Cl)cc3F)CC2)CC1
1160 | Cc1ccc2c(c1)N(Cc1nc(-c3ccc(C)c(C)c3)no1)C(=O)CO2
837 | Cc1ccc(N2CCN(C(=O)CN3CCN(Cc4ccc(F)cc4)C3=O)CC2)cc1
951 | CC(C)c1noc(-c2cc(=O)n(CC(=O)NCc3ccc(F)cc3)c3ccccc23)n1
842 | COc1ccc(-c2csc(NC(=O)Cn3nc(C)cc3C)n2)cc1
596 | COc1cc(NC(=O)Nc2cccc(-c3nccnc3N3CCCC3)c2)cc(OC)c1
747 | O=C(NCc1csc(C2CCN(C(=O)Cc3ccc(Cl)cc3)CC2)n1)C1CC1
705 | Nc1nc(N2CCC3(CC2)OCCO3)ncc1C(=O)NCc1ccccc1
689 | O=C(Nc1ccc2c(c1)OCCO2)C1CCCN(c2cnc3nccnc3c2)C1 (stereo not given)
689 | Cc1[nH]ncc1CNC(=O)c1ccc2nc(Cc3ccccc3F)oc2c1
676 | O=C(Nc1ccc2c(c1)OCO2)C1CCN(c2cc(N3CCSCC3)ncn2)CC1
738 | CC1(C)CC(=O)c2cn(-c3ccccc3)c(=O)c(C(=O)NCC3CCCO3)c2C1 (stereo not given)

RP-LC retention time [s] | SMILES
636 | Cc1cc(C(=O)N2CCC3(CCC3O)CC2)no1 (stereo not given)
742 | O=S(=O)(NCc1ccccc1Cl)c1c[nH]c2ncccc12
624 | CCCN1CCN(C(=O)CC2CCN(C(=O)c3[nH]c(C)c(C(=O)OC(C)C)c3C)CC2)CC1
905 | CCNC(=O)C1CCN(c2nc3ccc(-c4cccc(F)c4)nc3s2)CC1
1160 | COc1ccc(-c2nnc(-c3cc(S(=O)(=O)N4CCC(C)CC4)ccc3Cl)o2)cc1
626 | CSc1cccc(NC(=O)N(C)Cc2nc3cc(C(=O)N(C)C)ccc3n2C)c1
853 | CCCn1c(=O)sc2cc(S(=O)(=O)N3CCC(C(=O)NC(C)CC)CC3)ccc21 (stereo not given)
928 | O=C(NCCc1csc(-c2ccccc2)n1)C1CCN(S(=O)(=O)c2ccc(F)cc2)CC1
588 | CCc1ccc(CNC(=O)C2CCN(c3cncnc3N3CCN(C)CC3)CC2)cc1
968 | O=C(NCCC1=CCCCC1)c1c[nH]c2ncccc12
593 | COCCNC(=O)N1CCN(c2cc(-c3cccc(OC)c3)ncn2)CC1
1000 | CCn1cc(C)c(C(=O)O)c1CC(=O)N(C)c1ccc(C)c(C)c1
833 | CCc1noc([C@@H]2CC(F)(F)CN2C(=O)c2ccoc2C)n1
718 | COCCN1CC2(CCN(S(=O)(=O)c3cc(F)cc(F)c3)CC2)C1c1ccccc1 (stereo not given)
632 | Fc1ccc(-c2nc(-c3ccc4c(c3)ncn4CCN3CCOCC3)no2)cc1
566 | COc1ccc(C(=O)NCC(c2cccn2C)N2CCCC2)c(OC)c1OC (stereo not given)
678 | O=C(COc1ccccc1)Nc1cnc(-c2cccnc2)nc1
974 | COc1ccc(-c2cc3nn(CC(=O)Nc4ccc(Cl)cc4)c(=O)n3c(C)n2)cc1
917 | COC(=O)c1cc2c(=O)n(-c3cccc(C(F)(F)F)c3)ccc2nc1C
829 | Cc1cc(C2CCCN2C(=O)Cc2c(F)cccc2Cl)no1 (stereo not given)
607 | CN(C)c1ncncc1N1CCC(C(=O)NC2CCCCC2)CC1
719 | Cc1cccc(NC(=O)NCC(c2cccnc2)c2cn(C)c3ccccc23)c1C (stereo not given)

SMILES | RP-LC retention time [s]
CCCN(CCC)C1Cc2cc(OC)c(OC)cc2C1 | 680
COc1ccc(CC(=O)N2CCC3(C2)C(=O)N(C)c2ccc(OC)cc23)c(Cl)c1 (stereo not given) | 825
